Test results taken from PubChem BioAssay (NCI).
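Briefly, cells in 96-well plates were exposed to five compound concentrations for 48 h, and endpoints were estimated by linear interpolation. GI50 = concentration required for 50% inhibition of growth. TGI is the concentration that stops growth completely.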

Assays:
Assay in all cases: growth of human tumour cells (NCI), 48 h
EKVX NSCLC = tested on: EKVX NSCLC
UO-31 renal = tested on: UO-31 renal
A498 renal = tested on: A498 renal
NCI-H522 lung = tested on: NCI-H522 lung
A549 NSCLC = tested on: A549 NSCLC
NCI-H226 lung = tested on: NCI-H226 lung
NCI-H460 lung = tested on: NCI-H460 lung
SF-268 CNS = tested on: SF-268 CNS
HCT-116 colon = tested on: HCT-116 colon
M14 melanoma = tested on: M14 melanoma
OVCAR-4 ovarian = tested on: OVCAR-4 ovarian
HOP-62 NSCLC = tested on: HOP-62 NSCLC
CAKI-1 renal = tested on: CAKI-1 renal
SF-295 CNS = tested on: SF-295 CNS
MDA-MB-435 = tested on: MDA-MB-435
HL-60(TB) leukemia = tested on: HL-60(TB) leukemia
NCI/ADR-RES ovarian = tested on: NCI/ADR-RES ovarian
MALME-3M melanoma = tested on: MALME-3M melanoma
MCF7 breast = tested on: MCF7 breast
TK-10 renal = tested on: TK-10 renal
MDA-MB-231 breast = tested on: MDA-MB-231 breast
K-562 leukemia = tested on: K-562 leukemia
SK-MEL-28 melanoma = tested on: SK-MEL-28 melanoma
NCI-H23 lung = tested on: NCI-H23 lung
SNB-75 CNS = tested on: SNB-75 CNS
SW-620 colon = tested on: SW-620 colon
UACC-257 melanoma = tested on: UACC-257 melanoma
RPMI-8226 leukemia = tested on: RPMI-8226 leukemia
KM12 colon = tested on: KM12 colon
HT29 colon = tested on: HT29 colon
OVCAR-8 ovarian = tested on: OVCAR-8 ovarian
ACHN renal = tested on: ACHN renal
OVCAR-3 ovarian = tested on: OVCAR-3 ovarian
COLO 205 colon = tested on: COLO 205 colon
IGROV1 ovarian = tested on: IGROV1 ovarian
U251 CNS = tested on: U251 CNS
DU-145 prostate = tested on: DU-145 prostate
SNB-19 CNS = tested on: SNB-19 CNS
SK-MEL-2 melanoma = tested on: SK-MEL-2 melanoma
SF-539 CNS = tested on: SF-539 CNS
MOLT-4 leukemia = tested on: MOLT-4 leukemia
LOX IMVI melanoma = tested on: LOX IMVI melanoma
SR leukemia = tested on: SR leukemia
SN12C renal = tested on: SN12C renal
786-0 renal = tested on: 786-0 renal
HCC-2998 colon = tested on: HCC-2998 colon
T-47D breast = tested on: T-47D breast
SK-MEL-5 melanoma = tested on: SK-MEL-5 melanoma
UACC-62 melanoma = tested on: UACC-62 melanoma
CCRF-CEM leukemia = tested on: CCRF-CEM leukemia
SK-OV-3 ovarian = tested on: SK-OV-3 ovarian
HS 578T breast = tested on: HS 578T breast
BT-549 breast = tested on: BT-549 breast
HOP-92 NSCLC = tested on: HOP-92 NSCLC
RXF 393 renal = tested on: RXF 393 renal
PC-3 prostate = tested on: PC-3 prostate
OVCAR-5 ovarian = tested on: OVCAR-5 ovarian
HCT-15 colon = tested on: HCT-15 colon

In the case of `Ic1ccccc1-c1ccccc1`, the GI50 (EKVX NSCLC) is reported as > 100 µM, the TGI (EKVX NSCLC) is reported as > 100 µM and the GI50 (UO-31 renal) is reported as 74.5 µM. For the same compound, the TGI (UO-31 renal) was > 100 µM, the GI50 (A498 renal) was 65.1 µM and the TGI (A498 renal) was > 100 µM. For the same compound, the GI50 (NCI-H522 lung) was > 100 µM, the TGI (NCI-H522 lung) was > 100 µM and the GI50 (A549 NSCLC) was > 100 µM. For the same compound, the TGI (A549 NSCLC) was > 100 µM, the GI50 (NCI-H226 lung) was > 100 µM and the TGI (NCI-H226 lung) was > 100 µM. For the same compound, the GI50 (NCI-H460 lung) was > 100 µM, the TGI (NCI-H460 lung) was > 100 µM and the GI50 (SF-268 CNS) was > 100 µM. For the same compound, the TGI (SF-268 CNS) was > 100 µM, the GI50 (HCT-116 colon) was 94.9 µM and the TGI (HCT-116 colon) was > 100 µM. For the same compound, the GI50 (M14 melanoma) was > 100 µM, the TGI (M14 melanoma) was > 100 µM and the GI50 (OVCAR-4 ovarian) was > 100 µM. For the same compound, the TGI (OVCAR-4 ovarian) was > 100 µM, the GI50 (HOP-62 NSCLC) was > 100 µM and the TGI (HOP-62 NSCLC) was > 100 µM. For the same compound, the GI50 (CAKI-1 renal) was > 100 µM, the TGI (CAKI-1 renal) was > 100 µM and the GI50 (SF-295 CNS) was > 100 µM. For the same compound, the TGI (SF-295 CNS) was > 100 µM, the GI50 (MDA-MB-435) was > 100 µM and the TGI (MDA-MB-435) was > 100 µM. The GI50 (HL-60(TB) leukemia) was 37.1 µM, the TGI (HL-60(TB) leukemia) was > 100 µM and the GI50 (NCI/ADR-RES ovarian) was > 100 µM. The TGI (NCI/ADR-RES ovarian) was > 100 µM, the GI50 (MALME-3M melanoma) was 96.2 µM and the TGI (MALME-3M melanoma) was > 100 µM. For the same compound, the GI50 (MCF7 breast) was > 100 µM, the TGI (MCF7 breast) was > 100 µM and the GI50 (TK-10 renal) was > 100 µM. The TGI (TK-10 renal) was > 100 µM, the GI50 (MDA-MB-231 breast) was > 100 µM and the TGI (MDA-MB-231 breast) was > 100 µM. The GI50 (K-562 leukemia) was > 100 µM, the TGI (K-562 leukemia) was > 100 µM and the GI50 (SK-MEL-28 melanoma) was > 100 µM. The TGI (SK-MEL-28 melanoma) was > 100 µM, the GI50 (NCI-H23 lung) was > 100 µM and the TGI (NCI-H23 lung) was > 100 µM. The GI50 (SNB-75 CNS) was > 100 µM, the TGI (SNB-75 CNS) was > 100 µM and the GI50 (SW-620 colon) was > 100 µM. The TGI (SW-620 colon) was > 100 µM, the GI50 (UACC-257 melanoma) was > 100 µM and the TGI (UACC-257 melanoma) was > 100 µM. For the same compound, the GI50 (RPMI-8226 leukemia) was 62.7 µM, the TGI (RPMI-8226 leukemia) was > 100 µM and the GI50 (KM12 colon) was > 100 µM. The TGI (KM12 colon) was > 100 µM, the GI50 (HT29 colon) was > 100 µM and the TGI (HT29 colon) was > 100 µM. For the same compound, the GI50 (OVCAR-8 ovarian) was > 100 µM, the TGI (OVCAR-8 ovarian) was > 100 µM and the GI50 (ACHN renal) was > 100 µM. For the same compound, the TGI (ACHN renal) was > 100 µM, the GI50 (OVCAR-3 ovarian) was > 100 µM and the TGI (OVCAR-3 ovarian) was > 100 µM. For the same compound, the GI50 (COLO 205 colon) was > 100 µM, the TGI (COLO 205 colon) was > 100 µM and the GI50 (IGROV1 ovarian) was > 100 µM. The TGI (IGROV1 ovarian) was > 100 µM, the GI50 (U251 CNS) was > 100 µM and the TGI (U251 CNS) was > 100 µM. The GI50 (DU-145 prostate) was > 100 µM, the TGI (DU-145 prostate) was > 100 µM and the GI50 (SNB-19 CNS) was > 100 µM. The TGI (SNB-19 CNS) was > 100 µM, the GI50 (SK-MEL-2 melanoma) was 76 µM and the TGI (SK-MEL-2 melanoma) was > 100 µM. For the same compound, the GI50 (SF-539 CNS) was > 100 µM, the TGI (SF-539 CNS) was > 100 µM and the GI50 (MOLT-4 leukemia) was 26.8 µM. The TGI (MOLT-4 leukemia) was > 100 µM, the GI50 (LOX IMVI melanoma) was 42.4 µM and the TGI (LOX IMVI melanoma) was > 100 µM. For the same compound, the GI50 (SR leukemia) was 18.3 µM, the TGI (SR leukemia) was > 100 µM and the GI50 (SN12C renal) was > 100 µM. The TGI (SN12C renal) was > 100 µM, the GI50 (786-0 renal) was > 100 µM and the TGI (786-0 renal) was > 100 µM. For the same compound, the GI50 (HCC-2998 colon) was > 100 µM, the TGI (HCC-2998 colon) was > 100 µM and the GI50 (T-47D breast) was 70.5 µM. For the same compound, the TGI (T-47D breast) was > 100 µM, the GI50 (SK-MEL-5 melanoma) was > 100 µM and the TGI (SK-MEL-5 melanoma) was > 100 µM. The GI50 (UACC-62 melanoma) was 46.7 µM, the TGI (UACC-62 melanoma) was > 100 µM and the GI50 (CCRF-CEM leukemia) was 41.5 µM. For the same compound, the TGI (CCRF-CEM leukemia) was > 100 µM, the GI50 (SK-OV-3 ovarian) was > 100 µM and the TGI (SK-OV-3 ovarian) was > 100 µM. For the same compound, the GI50 (HS 578T breast) was > 100 µM, the TGI (HS 578T breast) was > 100 µM and the GI50 (BT-549 breast) was > 100 µM. For the same compound, the TGI (BT-549 breast) was > 100 µM, the GI50 (HOP-92 NSCLC) was 13.2 µM and the TGI (HOP-92 NSCLC) was > 100 µM. The GI50 (RXF 393 renal) was 89.1 µM, the TGI (RXF 393 renal) was > 100 µM and the GI50 (PC-3 prostate) was > 100 µM. For the same compound, the TGI (PC-3 prostate) was > 100 µM, the GI50 (OVCAR-5 ovarian) was > 100 µM and the TGI (OVCAR-5 ovarian) was > 100 µM. The GI50 (HCT-15 colon) was > 100 µM and the TGI (HCT-15 colon) was > 100 µM.
